Experimental data from patent publication US9617262B2, “Antibacterial cyclopental[C]pyrrole substituted 3,4-dihydro-1H-[1,8]naphthyridinones” (Janssen Sciences Ireland UC, priority 2011, dated 2017).

Experiments:
[1] = In vivo pharmacokinetic and oral bioavailability; conditions: male Swiss mice
Experimental: The in vivo pharmacokinetics and oral bioavailability of the compound of the examples was/is investigated in male Swiss mice (fed) following single intravenous (i.v.) bolus and oral (p.o.) administration. For the i.v. and p.o. solution formulations, the compound was/is dissolved in a 20% HP-β-CD solution. The pH of the formulations was/is around pH 4. All i.v. formulations were isotonic.

Human HelaM cells = assay: Cytotoxicity MTT assay (TOX HELAM); format: cell-based; conditions: 72 hours
Experimental: Cytotoxicity of the compounds was evaluated using the MTT assay. Human HelaM cells grown in 96-well plates were exposed to serial dilutions of the tested compounds (final volume of 0.2 ml) and incubated for 72 hours at 37° C. and 5% CO2. Inhibitors are typically varied over the range of 25 to 0.8 μM. The final DMSO concentration in the assay is 0.5%. MTT (3-(4,5-Dimethylthiazol-2-yl)-2,5-diphenyltetrazolium bromide, a tetrazole) was added and reduced to purple formazan only in living cells. Solubilization of the formazan crystals was achieved by adding 100 μl 2-propanol. Cell viability was determined by measuring the absorbance of the reduced formazan, giving a purple color, at 540 nm and 690 nm. The absorbance measured at 690 nm was automatically subtracted from the absorbance at 540 nm, to eliminate the effects of non-specific absorption. The percent cytotoxicity achieved by the compounds was calculated according to standard methods. Cytotoxicity is reported as CC50, the concentration that causes a 50% reduction in cell viability.
The results are depicted in the table D2 below (TOX HELAM).

[2] = biological target: S. aureus ATCC 29213 FabI (Staphylococcus aureus (strain MRSA252), UniProt Q6GI75); assay: Staphylococcus aureus FabI enzyme inhibition assay; format: biochemical; conditions: pH 6.5, 30 minutes at room temperature
Experimental: FabI enzyme inhibition assays were carried out in half-area, 384-well microtitre plates. Compounds were evaluated in 40-μl assay mixtures containing 100 mM NaADA, pH 6.5 (ADA=N-[2-acetamido]-2iminodiacetic acid), 250 μM crotonoyl-CoA, 625 μM NADH and 50 μg/ml S. aureus ATCC 29213 FabI. Inhibitors were typically varied over the range of 50 to 0.39 μM. The reaction mixtures were incubated for 30 minutes at room temperature and the reaction was stopped by adding 200 mM Tris buffer (pH 9.0) to create a pH-shift. The consumption of NADH was monitored by measuring the change in absorbance at […]. By comparing sample readings to those of negative (absence of compound) and positive (absence of enzyme) controls, the percent inhibition of enzymatic activity of the compounds was determined. A best-fit curve is fitted by a minimum of squares method. From this an IC50-value (expressed in μg/ml), resulting in 50% inhibition of enzymatic activity, was obtained.

S. aureus = assay: Antibacterial susceptibility testing: IC90 determination with 10% human serum (STA + 10% HS); format: cell-based, Staphylococcus aureus; conditions: human serum at a final concentration of 10%
Experimental: The following bacteria were used: Staphylococcus aureus ATCC 29213, methicillin-resistant Staphylococcus aureus (MRSA) ATCC 700788 and Escherichia coli ATCC 35218. The bacteria used in this study were grown overnight in flasks containing 100 ml Mueller-Hinton broth (Difco cat. nr. 0757-17) in sterile de-ionized water, with shaking, at 37° C. Stocks were store at −70° C. until use.
Bacteria were incubated on a tryptic soy agar plate containing 5% sheep blood (Becton Dickinson cat. nr. 254053) for 18-24 hours at 35° C. in aerobic conditions (first passage). For the second passage, fresh Mueller-Hinton broth is inoculated with 5-10 colonies and grown overnight at 35° C. until turbidity (reaching log-phase) in aerobic conditions is reached. The bacterial suspension is then adjusted to 0.5 McFarland density and further diluted 1:100 in Mueller Hinton broth medium. This is used as inoculum.
MIC assays were performed by the broth microdilution method in a 96-well format (flat-bottom microtitre plates) with a final volume of 0.1 ml Mueller Hinton broth containing two-fold serial dilutions of compounds and inoculated with 5×10^5 CFU/ml of bacteria (standard inoculum size according to CLSI guidelines). Inhibitors are typically varied over the range of 63 to 0.49 μM. The final DMSO concentration in the assay was 1.25% (maximum tolerable DMSO concentration=6%). In the assays where the effect of human serum on the activity of the compounds against S. aureus was tested, human serum was added at a final concentration of 10%. The plates were incubated at 35° C. for 16-20 hours. At the end of incubation the bacterial growth was quantified fluorometrically. For this, resazurin was added to all wells and the plates were re-incubated. The incubation time is dependent on the type of bacteria. A change in color from blue to pink indicated the growth of bacteria. The fluorescence was read in computer-controlled fluorometer (Fluoroskan Ascent FL, Labsystems) at an excitation wavelength 540 nm and an emission wavelength of 590 nm. The % growth inhibition achieved by the compounds was calculated according to standard methods. The IC90 (expressed in μg/ml) was defined as the 90% inhibitory concentration for bacterial growth. A panel of reference compounds were simultaneously tested for QC approval.
The results are depicted in the table D2 below (STA+10% HS).

O=C1CCc2cc(/C=C/C(=O)N3C[C@@H]4CC(c5ccccc5)=C[C@@H]4C3)cnc2N1 (single isomer, unassigned) [compound 14]
AUC0-inf ([1]; i.v. 2.5 mg/kg): 7464 ng·h/mL
Half life (t1/2) ([1]; i.v. 2.5 mg/kg): 2.7 h
Plasma clearance Cl ([1]; i.v. 2.5 mg/kg): 5.5 mL/min/kg
Vdz ([1]; i.v. 2.5 mg/kg): 1.3 L/kg
C0 ([1]; i.v. 2.5 mg/kg, 20% HP-β-CD solution): 2929 ng/mL
Oral bioavailability ([1]; p.o. 10 mg/kg vs i.v. 2.5 mg/kg): 72%
AUC0-inf ([1]; p.o. 10 mg/kg): 21394 ng·h/mL
Cmax ([1]; p.o. 10 mg/kg): 2950 ng/mL
Half life (t1/2) ([1]; p.o. 10 mg/kg): 3.2 h
Tmax ([1]; p.o. 10 mg/kg): 2.0 h
TOX HELAM (222.125) CC50 (Human HelaM cells): >9.683 µg/mL
FabI IC50 [2]: 0.40 µg/mL
STA + 10% HS (361.169) IC90 (S. aureus): 0.19 µg/mL
